This note sets out measurements from US20240083853A1, “HSD17B13 INHIBITORS AND USES THEREOF” (FL2022-001, Inc., priority 2020, published 2024).

This experiment has as its target T1, Recombinant human HSD17B13 enzyme (Homo sapiens, UniProt Q7Z5P4).
T1 sequence (Q7Z5P4 20-300): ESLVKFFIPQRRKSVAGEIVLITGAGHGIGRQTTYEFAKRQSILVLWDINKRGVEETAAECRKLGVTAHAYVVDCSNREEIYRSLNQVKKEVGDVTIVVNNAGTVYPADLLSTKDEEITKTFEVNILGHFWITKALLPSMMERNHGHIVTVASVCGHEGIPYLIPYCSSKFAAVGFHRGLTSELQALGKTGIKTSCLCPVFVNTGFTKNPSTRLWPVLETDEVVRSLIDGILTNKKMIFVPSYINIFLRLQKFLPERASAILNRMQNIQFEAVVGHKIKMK
Kind of experiment: HSD17b13 NAD(P)H-Glo biochemical assay. To be noted: for IC50: 50 uM estradiol, 1 mM NAD+, NAD(P)H-Glo luminescence, read-out: HSD17β13 IC50; for inhibition at 10 µM: 3 h, at 10 uM compound, read-out: HSD17β13 % at 10 uM. An outline of the steps: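 Recombinant human HSD17B13 in 20 mM Tris pH7.4 with 0.002% Tween-20 and 0.02% BSA was preincubated with inhibitor for 20 minutes at RT. The reaction ran 3 hours at 37° C with 50 uM estradiol and 1 mM NAD+ (final). NADH formed was detected by NAD(P)H-Glo luminescence after 1 hour at RT.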

Broadly, the IC50 is the concentration that inhibits the measured activity by half.

Each structure is given as a SMILES string.

Take `CC1(CO)CN(c2ccc(-n3ncc4cc(F)c(O)c(F)c43)cc2)C1` [Compound 20.16, 5,7-Difluoro-1-(4-(3-(hydroxymethyl)-3-methylazetidin-1-yl)phenyl)-1H-indazol-6-ol]: the IC50 is 100 to 1000 nM.
Still for that read-out and setting: for `CC1(CO)CCN(c2ccc(-n3ncc4cc(F)c(O)c(F)c43)cc2)CC1` [Compound 20.17, 5,7-Difluoro-1-(4-(4-(hydroxymethyl)-4-methylpiperidin-1-yl)phenyl)-1H-indazol-6-ol] the value was 100 to 1000 nM.
As for `COCC1(C)CCN(c2ccc(-n3ncc4cc(F)c(O)c(F)c43)cc2)CC1` [Compound 20.18, 5,7-Difluoro-1-(4-(4-(methoxymethyl)-4-methylpiperidin-1-yl)phenyl)-1H-indazol-6-ol], the IC50 is below 100 nM.
As for `COC1(C)CN(c2ccc(-n3ncc4cc(F)c(O)c(F)c43)cc2)C1` [Compound 20.19, 5,7-Difluoro-1-(4-(3-methoxy-3-methylazetidin-1-yl)phenyl)-1H-indazol-6-ol], the IC50 was below 100 nM.
Turning to `COC1(C)CCN(c2ccc(-n3ncc4cc(F)c(O)c(F)c43)cc2)CC1` [Compound 20.20, 5,7-Difluoro-1-(4-(4-methoxy-4-methylpiperidin-1-yl)phenyl)-1H-indazol-6-ol], the IC50 was below 100 nM.
On the same count and under the same terms, for `CS(=O)(=O)N1CC2(CCN(c3ccc(-n4ncc5cc(F)c(O)c(F)c54)cc3)CC2)C1` [Compound 20.21, 5,7-Difluoro-1-(4-(2-(methylsulfonyl)-2,7-diazaspiro[3.5]nonan-7-yl)phenyl)-1H-indazol-6-ol] the value was 100 to 1000 nM.
Same read-out and setting: the result for `CS(=O)(=O)N1CCC2(CC1)CN(c1ccc(-n3ncc4cc(F)c(O)c(F)c43)cc1)C2` [Compound 20.22, 5,7-Difluoro-1-(4-(7-(methylsulfonyl)-2,7-diazaspiro[3.5]nonan-2-yl)phenyl)-1H-indazol-6-ol] reads 100 to 1000 nM.
As to `CS(=O)(=O)N1CC2(CN(c3ccc(-n4ncc5cc(F)c(O)c(F)c54)cc3)C2)C1` [Compound 20.23, 5,7-Difluoro-1-(4-(6-(methylsulfonyl)-2,6-diazaspiro[3.3]heptan-2-yl)phenyl)-1H-indazol-6-ol], the IC50 is 100 to 1000 nM.
Same read-out and setting: the result for `CC1(C)CCN(c2ccc(-n3nnc4cc(F)c(O)c(F)c43)cc2)CC1` [Compound 21, 1-(4-(4,4-Dimethylpiperidin-1-yl)phenyl)-5,7-difluoro-1H-benzo[d][1,2,3]triazol-6-ol] reads below 100 nM; that for `CS(=O)(=O)NC1CN(c2ccc(-n3ncc4cc(F)c(O)cc43)cc2)C1` [Compound 21.1, N-(1-(4-(5-Fluoro-6-hydroxy-1H-indazol-1-yl)phenyl)azetidin-3-yl)methanesulfonamide], 1000 to 30000 nM; that for `CS(=O)(=O)N1CCN(c2ccc(-n3ncc4cc(F)c(O)cc43)cc2)CC1` [Compound 21.2, 5-Fluoro-1-(4-(4-(methylsulfonyl)piperazin-1-yl)phenyl)-1H-indazol-6-ol], 1000 to 30000 nM.
Still for that read-out and setting: the result for `CS(=O)(=O)N1CCN(c2ccc(-n3nnc4cc(F)c(O)c(F)c43)cc2)CC1` [Compound 21.3, 5,7-Difluoro-1-(4-(4-(methylsulfonyl)piperazin-1-yl)phenyl)-1H-benzo[d][1,2,3]triazol-6-ol] reads below 100 nM; that for `CS(=O)(=O)N1CCN(c2ccc(-n3cnc4cc(F)c(O)c(F)c43)cc2)CC1` [Compound 21.4, 5,7-Difluoro-1-(4-(4-(methylsulfonyl)piperazin-1-yl)phenyl)-1H-benzo[d]imidazol-6-ol], 100 to 1000 nM.
The same measure, in the same setting: for `CC1(C)CCN(c2ccc(-n3cnc4cc(F)c(O)c(F)c43)cc2)CC1` [Compound 21.5, 1-(4-(4,4-Dimethylpiperidin-1-yl)phenyl)-5,7-difluoro-1H-benzo[d]imidazol-6-ol] the value was below 100 nM; for `Cn1c(=O)n(-c2ccc(N3CCC(C)(C)CC3)cc2)c2c(F)c(O)c(F)cc21` [Compound 21.6, 3-(4-(4,4-Dimethylpiperidin-1-yl)phenyl)-4,6-difluoro-5-hydroxy-1-methyl-1H-benzo[d]imidazol-2(3H)-one], below 100 nM.
For `CC1(C)CCN(c2ccc(-n3nnc4cc(F)c(O)cc43)cc2)CC1` [Compound 21.7, 1-(4-(4,4-Dimethylpiperidin-1-yl)phenyl)-5-fluoro-1H-benzo[d][1,2,3]triazol-6-ol], the IC50 is below 100 nM.
On to `Cc1nc2cc(F)c(O)c(F)c2n1-c1ccc(N2CCC(C)(C)CC2)cc1` [Compound 21.8, 1-(4-(4,4-Dimethylpiperidin-1-yl)phenyl)-5,7-difluoro-2-methyl-1H-benzo[d]imidazol-6-ol], for which the inhibition at 10 µM worked out at 35%.
`CC1(C)CCN(c2ccc(-n3c(Cl)nc4cc(F)c(O)c(F)c43)cc2)CC1` [Compound 21.9, 2-Chloro-1-(4-(4,4-dimethylpiperidin-1-yl)phenyl)-5,7-difluoro-1H-benzo[d]imidazol-6-ol]: the IC50 was in the range of 100 to 1000 nM.
On to `CC1(C)CCN(c2ccc(-n3cnc4cc(F)c(O)cc43)cc2)CC1` [Compound 21.10, 1-(4-(4,4-Dimethylpiperidin-1-yl)phenyl)-5-fluoro-1H-benzo[d]imidazol-6-ol], for which the inhibition at 10 µM came to 35%.
`CS(=O)(=O)N1CCN(c2ccc(-n3ncc4ccc(O)c(F)c43)cc2)CC1` [Compound 21.11, 7-Fluoro-1-(4-(4-(methylsulfonyl)piperazin-1-yl)phenyl)-1H-indazol-6-ol]: the IC50 is 100 to 1000 nM.
Same read-out and setting: the result for `CC1(C)CCN(c2ccc(-n3c(=O)n(CO)c4cc(F)c(O)c(F)c43)cc2)CC1` [Compound 21.12, 3-(4-(4,4-Dimethylpiperidin-1-yl)phenyl)-4,6-difluoro-5-hydroxy-1-(hydroxymethyl)-1H-benzo[d]imidazol-2(3H)-one] reads below 100 nM; that for `CC(C)n1c(=O)n(-c2ccc(N3CCC(C)(C)CC3)cc2)c2c(F)c(O)c(F)cc21` [Compound 21.13, 3-(4-(4,4-Dimethylpiperidin-1-yl)phenyl)-4,6-difluoro-5-hydroxy-1-isopropyl-1H-benzo[d]imidazol-2(3H)-one], 100 to 1000 nM.
For the compound `N#CC1CCN(c2ccc(-n3ncc4cc(F)c(O)c(F)c43)cc2)CC1` [Compound 22, 1-(4-(5,7-Difluoro-6-hydroxy-1H-indazol-1-yl)phenyl)piperidine-4-carbonitrile], the IC50 is below 100 nM.
On the same count and under the same terms, for `CS(=O)(=O)C1CN(c2ccc(-n3ncc4cc(F)c(O)c(F)c43)cc2)C1` [Compound 22.1, 5,7-Difluoro-1-(4-(3-(methylsulfonyl)azetidin-1-yl)phenyl)-1H-indazol-6-ol] the value was 100 to 1000 nM; for `CS(=O)(=O)C1CCN(c2ccc(-n3ncc4cc(F)c(O)c(F)c43)cc2)C1` (stereo not drawn) [Compound 22.2, 5,7-Difluoro-1-(4-(3-(methylsulfonyl)pyrrolidin-1-yl)phenyl)-1H-indazol-6-ol], 100 to 1000 nM; for `CS(=O)(=O)C1CCN(c2ccc(-n3ncc4cc(F)c(O)c(F)c43)cc2)CC1` [Compound 22.3, 5,7-Difluoro-1-(4-(4-(methylsulfonyl)piperidin-1-yl)phenyl)-1H-indazol-6-ol], 100 to 1000 nM.
`COC1CCN(c2ccc(-n3ncc4cc(F)c(O)c(F)c43)cc2)CC1` [Compound 22.4, 5,7-Difluoro-1-(4-(4-methoxypiperidin-1-yl)phenyl)-1H-indazol-6-ol]: the IC50 was below 100 nM.
On the same count and under the same terms, the result for `COC1CCN(c2ccc(-n3ncc4cc(F)c(O)c(F)c43)cc2)C1` (stereo not drawn) [Compound 22.5, 5,7-Difluoro-1-(4-(3-methoxypyrrolidin-1-yl)phenyl)-1H-indazol-6-ol] reads below 100 nM; that for `CC1(C)CCN(c2ccc(-n3ncc4cc(F)c(O)c(F)c43)cc2)CC1` [Compound 23, 1-(4-(4,4-Dimethylpiperidin-1-yl)phenyl)-5,7-difluoro-1H-indazol-6-ol], below 100 nM.
For the compound `Oc1c(F)cc2cnn(-c3ccc(N4CCC(O)CC4)cc3)c2c1F` [Compound 23.1, 5,7-Difluoro-1-(4-(4-hydroxypiperidin-1-yl)phenyl)-1H-indazol-6-ol], the concentration for half-maximal inhibition (IC50) lay in the range of 100 to 1000 nM.
`Oc1c(F)cc2cnn(-c3ccc(N4CCCCC4)cc3)c2c1F` [Compound 23.2, 5,7-Difluoro-1-(4-(piperidin-1-yl)phenyl)-1H-indazol-6-ol]: the IC50 was below 100 nM.
Consider `Oc1c(F)cc2cnn(-c3ccc(N4CCOCC4)cc3)c2c1F` [Compound 23.3, 5,7-Difluoro-1-(4-morpholinophenyl)-1H-indazol-6-ol], for which the IC50 was in the range of 100 to 1000 nM.
On the same count and under the same terms, the result for `Oc1c(F)cc2cnn(-c3ccc(N4CCSCC4)cc3)c2c1F` [Compound 23.4, 5,7-Difluoro-1-(4-thiomorpholinophenyl)-1H-indazol-6-ol] reads below 100 nM; that for `O=S1(=O)CCN(c2ccc(-n3ncc4cc(F)c(O)c(F)c43)cc2)CC1` [Compound 23.5, 4-(4-(5,7-Difluoro-6-hydroxy-1H-indazol-1-yl)phenyl)thiomorpholine 1,1-dioxide], 100 to 1000 nM.
For `CC1(C)CN(S(C)(=O)=O)CCN1c1ccc(-n2ncc3cc(F)c(O)c(F)c32)cc1` [Compound 23.6, 1-(4-(2,2-Dimethyl-4-(methylsulfonyl)piperazin-1-yl)phenyl)-5,7-difluoro-1H-indazol-6-ol], the half-inhibitory concentration (IC50) lay within 100 to 1000 nM.
The same measure, in the same setting: the result for `CS(=O)(=O)N1CCN(c2ccc(-n3ncc4cc(F)c(O)c(F)c43)cc2F)CC1` [Compound 23.7, 5,7-Difluoro-1-(3-fluoro-4-(4-(methylsulfonyl)piperazin-1-yl)phenyl)-1H-indazol-6-ol] reads 100 to 1000 nM.
